Data as given in ChEMBL document CHEMBL5512645, “A novel antimicrobial peptide with broad-spectrum and exceptional stability derived from the natural peptide Brevicidine” (Eur J Med Chem, 2024).
Converted amounts (≈) assume the structure as drawn. Values belong to the molecule of their own block, whether it stands above or below them. The source made the active and inactive calls. The calls are words filed in the database; no cut-off is given here. Bridge positions count the residues as written; N and C are the ends. Square brackets hold non-standard residues; d marks the D form. Peptide text beside a SMILES is read from it. * marks the point of attachment. ξ: configuration not given here. Hexanoyl(4ξ-Me) = CCC(C)CCC(=O)*; dOrn = NCCC[C@@H](N)C(=O)O; Orn = NCCC[C@H](N)C(=O)O

How the values were obtained:
Staphylococcus aureus [1] = assay: Antibacterial activity against Staphylococcus aureus ATCC 25923 pretreated with 5% mouse serum followed by compound addition and measured after 1 hr by broth microdilution method (reference value: 8 microM); format: functional
Pseudomonas aeruginosa [2] = assay: Bactericidal activity against Pseudomonas aeruginosa ATCC 27853 assessed as assessed as eradication of bacterial cells at 2 to 4 times MIC measured after 10 mins by time killing analysis; format: functional, organism-based
[3] = Toxicity in male BALB/c mouse assessed as hemorrhage in liver at 46.88 mg/kg, ip administered as single dose by H and E staining based analysis; format: organism-based; conditions: in vivo
Pseudomonas aeruginosa [4] = assay: Antibacterial activity against Pseudomonas aeruginosa ATCC 27853 assessed as fold increase in MIC pretreated with FeCl3 followed by compound addition and measured after 2 hrs by broth microdilution method; format: functional
Erythrocyte = assay: Hemolytic activity in mouse red blood cell assessed as hemolysis incubated for 1 hr; format: toxicity, cell-based
[5] = Toxicity in male BALB/c mouse assessed as lethal dose administered as ip measured after 7 days; format: organism-based; conditions: male, BALB/c, in vivo, time 7 day
[6] = Toxicity in male BALB/c mouse assessed as survival rate at 42.6 mg/kg, ip measured after 6 days relative to control; format: organism-based; conditions: in vivo, time 6 day
Staphylococcus aureus [7] = assay: In vivo antibacterial activity against Staphylococcus aureus ATCC 25923 infected in BALB/c mouse model assessed as reduction in bacterial count in liver at 10 mg/kg, ip preadministered with compound for 1 hr followed by bacterial infection and measured after 6 hrs […]; format: functional, organism-based; conditions: time 7.0 hrs
Staphylococcus aureus [8] = assay: Antibacterial activity against Staphylococcus aureus ATCC 25923 pretreated with 10% mouse serum followed by compound addition and measured after 6 hrs by broth microdilution method (reference value: 8 microM); format: functional
Staphylococcus aureus [9] = assay: Bactericidal activity against Staphylococcus aureus ATCC 25923 assessed as assessed as eradication of bacterial cells at 1/2 times MIC measured after 6 hrs by time killing analysis; format: functional, organism-based
Staphylococcus aureus [10] = assay: In vivo antibacterial activity against Staphylococcus aureus ATCC 25923 infected in BALB/c mouse model assessed as reduction in bacterial count in spleen at 10 mg/kg, ip preadministered with compound for 1 hr followed by bacterial infection and measured after 6 hrs […]; format: functional, organism-based; conditions: time 7.0 hrs
Pseudomonas aeruginosa [11] = assay: Antibacterial activity against Pseudomonas aeruginosa ATCC 27853 assessed as reduction in survival bacterial growth in presence of chymotrypsin measured after 8 hrs by absorbance based analysis; format: functional, organism-based
Staphylococcus aureus [12] = assay: In vivo antibacterial activity against Staphylococcus aureus ATCC 25923 infected in BALB/c mouse model assessed as reduction in bacterial count in kidney at 10 mg/kg, ip preadministered with compound for 1 hr followed by bacterial infection and measured after 6 hrs […]; format: functional, organism-based; conditions: time 7.0 hrs
[13] = Half life in mouse serum by RP-HPLC analysis; format: ADME, cell-free
[14] = Retention time of the compound in mouse serum by RP-HPLC analysis; format: ADME, cell-free
Cell membrane [15] = assay: Induction of cytoplasmic membrane depolarization in Pseudomonas aeruginosa ATCC 27853 assessed as increase in fluorescence intensity measured upto 12 min by DiSC3-5 dye based fluorescence method; format: cell membranes
Staphylococcus aureus [16] = assay: In vivo antibacterial activity against Staphylococcus aureus ATCC 25923 infected in BALB/c mouse model assessed as amelioration of pathological changes in liver at 5 to 10 mg/kg, ip measured after 7 hrs by H and E staining based analysis; format: functional, organism-based; conditions: dose 5-10 mg/kg
Staphylococcus aureus [17] = assay: Antibacterial activity against Staphylococcus aureus ATCC 25923 at sub-MIC measured after 20 days; format: functional, organism-based; conditions: time 20.0 day
Staphylococcus aureus [18] = assay: Antibacterial activity against Staphylococcus aureus ATCC 25923 pretreated with 20% mouse serum followed by compound addition and measured after 1 hr by broth microdilution method (reference value: 8 microM); format: functional
Staphylococcus aureus [19] = assay: In vivo antibacterial activity against Staphylococcus aureus ATCC 25923 infected in BALB/c mouse model assessed as amelioration of pathological changes in kidney at 5 to 10 mg/kg, ip measured after 7 hrs by H and E staining based analysis; format: functional, organism-based; conditions: dose 5-10 mg/kg
[20] = Toxicity in male BALB/c mouse assessed as survival rate at 132.7 mg/kg, ip measured after 6 days relative to control; format: organism-based; conditions: in vivo, time 6 day
Pseudomonas aeruginosa [21] = assay: Antibacterial activity against Pseudomonas aeruginosa ATCC 27853 assessed as fold increase in MIC pretreated with ZnCl2 followed by compound addition and measured after 2 hrs by broth microdilution method; format: functional
Pseudomonas aeruginosa [22] = assay: Antibacterial activity against Pseudomonas aeruginosa ATCC 27853 assessed as reduction in survival bacterial growth in presence of trypsin measured after 8 hrs by absorbance based analysis; format: functional, organism-based
Pseudomonas aeruginosa [23] = assay: Bactericidal activity against Pseudomonas aeruginosa ATCC 27853 assessed as assessed as eradication of bacterial cells at 2 to 4 times MIC measured after 0.5 hr by time killing analysis; format: functional, organism-based
Cell membrane [24] = assay: Induction of outer membrane permeabilization in Pseudomonas aeruginosa ATCC 27853 assessed increase in fluorescence intensity at 1/2 MIC measured upto 12 mins by fluorescence based NPN uptake assay; format: cell membranes
Staphylococcus aureus [25] = assay: Antibacterial activity against Staphylococcus aureus ATCC 25923 assessed as fold increase in MIC pretreated with 2.5 to 20% mouse serum followed by compound addition and measured after 6 hr by broth microdilution method; format: functional
Staphylococcus aureus [26] = assay: Antibacterial activity against Staphylococcus aureus ATCC 25923 pretreated with 2.5% mouse serum followed by compound addition and measured after 1 hr by broth microdilution method (reference value: 64 microM); format: functional
Staphylococcus aureus [27] = assay: Antibacterial activity against Staphylococcus aureus ATCC 25923 pretreated with 10% mouse serum followed by compound addition and measured after 6 hrs by broth microdilution method (reference value: 64 microM); format: functional
Cell membrane [28] = assay: Induction of outer membrane permeabilization in Pseudomonas aeruginosa ATCC 27853 assessed increase in fluorescence intensity at 1 MIC measured upto 12 mins by fluorescence based NPN uptake assay; format: cell membranes
Cell membrane [29] = assay: Induction of cytoplasmic membrane depolarization in Staphylococcus aureus ATCC 25923 assessed as increase in fluorescence intensity at 4 times MIC measured upto 12 min by DiSC3-5 dye based fluorescence method; format: cell membranes
Staphylococcus aureus [30] = assay: Antibacterial activity against Staphylococcus aureus ATCC 25923 pretreated with Na-cl followed by compound addition and measured after 2 hrs by broth microdilution method (reference value: 16 microM); format: functional, organism-based
Staphylococcus aureus [31] = assay: Antibacterial activity against Staphylococcus aureus ATCC 25923 pretreated with Kcl followed by compound addition and measured after 2 hrs by broth microdilution method (reference value: 16 microM); format: functional, organism-based
Staphylococcus aureus [32] = assay: Antibacterial activity against Staphylococcus aureus ATCC 25923 at sub-MIC measured after 6 days; format: functional, organism-based; conditions: time 6.0 day
Staphylococcus aureus [33] = assay: Antibacterial activity against Staphylococcus aureus ATCC 25923 pretreated with 5% mouse serum followed by compound addition and measured after 6 hrs by broth microdilution method (reference value: 16 microM); format: functional, organism-based
Staphylococcus aureus [34] = assay: Antibacterial activity against Staphylococcus aureus ATCC 25923 pretreated with 10% mouse serum followed by compound addition and measured after 1 hr by broth microdilution method (reference value: 16 microM); format: functional, organism-based
Cell membrane [35] = assay: Induction of outer membrane permeabilization in Pseudomonas aeruginosa ATCC 27853 assessed increase in fluorescence intensity measured after 12 mins by fluorescence based NPN uptake assay; format: cell membranes

Molecule: CCCCCCCCCC(=O)N[C@H](CCCN)C(=O)N[C@H](Cc1ccc(O)cc1)C(=O)N[C@H](Cc1c[nH]c2ccccc12)C(=O)N[C@H](CCCN)C(=O)N[C@@H](CCCN)C(=O)NCC(=O)N[C@H](CCCN)C(=O)N[C@@H](Cc1c[nH]c2ccccc12)C(=O)N[C@H](C(=O)N[C@H](C(=O)NCC(=O)N[C@@H](CO)C(=O)O)[C@@H](C)CC)[C@@H](C)O
MIC (Staphylococcus aureus [1]): 16 µM (≈ 25.3 µg/mL)
Activity (Pseudomonas aeruginosa [2]): Active
Activity [3]: Toxic
fold change (FC) (Pseudomonas aeruginosa [4]): 8
MHC (Erythrocyte): 128 µM
LD50 at 168 h [5]: 46.9 mg/kg
survival at 144 h [6]: 50%
Activity (Staphylococcus aureus [7]): Active
MIC (Staphylococcus aureus [8]): 32 µM (≈ 50.6 µg/mL)
Activity (Staphylococcus aureus [9]): Active
Activity (Staphylococcus aureus [10]): Active
Activity (Pseudomonas aeruginosa [11]): Active
Activity (Staphylococcus aureus [12]): Active
half-life [13]: 41 h
Retention_time [14]: 15.312 min
Activity (Cell membrane [15]): Dose-Dependent Effect
Activity (Staphylococcus aureus [16]): Active
Activity (Staphylococcus aureus [17]): Active
MIC (Staphylococcus aureus [18]): > 128 µM
Activity (Staphylococcus aureus [19]): Active
survival at 144 h [20]: 0%
fold change (FC) (Pseudomonas aeruginosa [21]): 8
Activity (Pseudomonas aeruginosa [22]): Active

Activity (Cell membrane [24]): inactive
MIC (Staphylococcus aureus [26]): 64 µM (≈ 97.3 µg/mL)
half-life [13]: 4.47 h
Retention_time [14]: 14.82 min
MIC (Staphylococcus aureus [27]): 128 µM (≈ 195 µg/mL)
Activity (Cell membrane [28]): Active
Molecule: CCC(C)CCC(=O)N[C@H](CC(N)=O)C(=O)N[C@H](Cc1ccc(O)cc1)C(=O)N[C@H](Cc1c[nH]c2ccccc12)C(=O)N[C@H](CCCN)C(=O)N[C@@H](CCCN)C(=O)NCC(=O)N[C@H](CCCN)C(=O)N[C@@H](Cc1c[nH]c2ccccc12)C(=O)N[C@@H]1C(=O)N[C@@H]([C@@H](C)CC)C(=O)NCC(=O)N[C@@H](CO)C(=O)O[C@@H]1C (stereo partly drawn) ({Hexanoyl(4ξ-Me)}-[dN][dY][dW][dOrn][Orn]G[dOrn]WTIGS; ester 9-C)
Activity (Pseudomonas aeruginosa [23]): Active
fold change (FC) (Pseudomonas aeruginosa [4]): 2
MHC (Erythrocyte): 128 µM
fold change (FC) (Staphylococcus aureus [25]): 2
Activity (Pseudomonas aeruginosa [11]): Active
Activity (Staphylococcus aureus [17]): Active
fold change (FC) (Pseudomonas aeruginosa [21]): 2
Activity (Pseudomonas aeruginosa [22]): Active

Molecule: POLYMYXIN B
Activity (Cell membrane [29]): inactive
MIC (Staphylococcus aureus [30]): 16 µM
Activity (Staphylococcus aureus [10]): Active
MIC (Staphylococcus aureus [31]): 8 µM
Activity (Staphylococcus aureus [12]): Active
Activity (Staphylococcus aureus [32]): inactive
Activity (Staphylococcus aureus [16]): Active
Activity (Staphylococcus aureus [19]): Active
MIC (Staphylococcus aureus [33]): 16 µM
MIC (Staphylococcus aureus [34]): 16 µM
Activity (Cell membrane [35]): Dose-Dependent Effect
